Our source for the EC50 values is patent US11666577B2 (National Institute of Biological Sciences, Beijing, priority 2018, dated 2023).

The assay has as its system HT-29 cells. Description: Necroptosis assay (TNF-α/Smac mimetic/z-VAD, TSZ-induced) in HT-29 cells. The format is cell-based, human. On the procedure:
Methods: HT-29 cells were cultured in McCoy's 5 A culture medium (Invitrogen). On day one, HT-29 cells were plated in 96-well assay plates at density of 2,500-3,500 cells per well. On day two, necrosis were induced by adding 20 ng/ml TNF-α (T), 100 nM Smac mimetic (S), and […] z-VAD (Z). At the same time, 10 mM compound from a chemical library of ˜200,000 compounds was delivered into each well. After 24 hrs treatment, cell viability was determined by measuring ATP level using the Cell Titer-Glo Luminescent Cell Viability Assay kit. A CellTiter-Glo Assay (Promega) was performed according to the manufacturer's instructions. Luminescence was recorded with a PerkinElmer EnSpire Multimode Plate Reader. Survived cells were normalized to those cells treated with DMSO. RIPA-56 was used as a positive control for screening necroptosis inhibitors. Data are represented as mean±standard deviation of duplicates.
In previous work, we performed a cell-based high-throughput screen to identify necroptosis inhibitors using a chemical library of ˜200,000 compounds and identified multiple compounds that protected human colorectal adenocarcinoma (HT-29) cells from TNF-α/Smac mimetic/Z-VAD-fmk (TSZ)-induced necroptosis.^[4]
The anti-necroptosis potency of compounds 7-12 and 14-18 was evaluated in the HT-29 cell line; the EC50 values are shown in Table B.
[a] Necroptosis was induced in HT-29 cells for 24 h; the EC50 values given here are the mean values of at least three independent analyses.

[1] abbreviates: Series 1 (Table 1) compounds 1-146, HT-29 cells, TNF-α/Smac mimetic/z-VAD, 24 hrs, cell viability by ATP level, read-out: Series 1 compound necroptosis activity.
Setting [2] is: Homo sapiens, Series 1 (Table 1) compounds 1-146, HT-29 cells, TNF-α/Smac mimetic/z-VAD, 24 hrs, cell viability by ATP level, read-out: Series 1 compound necroptosis activity.
The mark [3] stands for this setting: Homo sapiens, Series 2 (Table 2) compounds, HT-29 necroptosis assay, read-out: Series 2 compound necroptosis activity.
Setting [4] is: Series 1 (Table 1) compounds, HT-29 cells, TNF-α/Smac mimetic/z-VAD, 24 hrs, cell viability by ATP level, read-out: Series 1 compound necroptosis activity.
Setting [5] is: Series 1 (Table 1) compounds 147-176, activity extrapolated, read-out: Series 1 compound necroptosis activity (extrapolated).

Each structure is given as a SMILES string. Where two headings read alike, the source gives them in different places.

In the case of `CSc1nc2c(c(=O)[nH]c(=O)n2C)n1C` [Compound 87, 3,7-dimethyl-8-(methylthio)-1H-purine-2,6(3H,7H)-dione], the EC50 under setting [1] was in the range of 1 to 1000 µM.

As to `Cn1c(=O)c2c(nc(S(C)(=O)=O)n2C)n(CC2CC2)c1=O` [Compound 102, 3-(cyclopropylmethyl)-1,7-dimethyl-8-(methylsulfonyl)-1H-purine-2,6(3H,7H)-dione], the EC50 under setting [2] fell in the range of 1 to 100 µM.

Regarding `COCC(=O)Nc1cc(C#CCn2c(=O)n(C)c(=O)c3c2nc(S(C)(=O)=O)n3C)cc(NC(=O)C2CC2)c1` [Compound 38], the EC50 under setting [3] is 0.001 to 0.1 µM.

`CCn1c(S(=O)(=O)CC)nc2c1c(=O)n(C)c(=O)n2C` [Compound 77, 7-ethyl-8-(ethylsulfonyl)-1,3-dimethyl-1H-purine-2,6(3H,7H)-dione]: the EC50 under setting [1] is 1 to 1000 µM.

For the compound `Cn1c(=O)c2c(nc(S(C)(=O)=O)n2C)n(Cc2cccs2)c1=O` [Compound 131, 1,7-dimethyl-8-(methylsulfonyl)-3-(thiophen-2-ylmethyl)-1H-purine-2,6(3H,7H)-dione], under setting [4], the EC50 fell in the range of 0.001 to 1 µM.

With `Cn1c(=O)c2c(nc(S(C)(=O)=O)n2C)n(CC#Cc2cc(NCC3CC3)cc(NCC3CC3)c2)c1=O` [Compound 37], the EC50 under setting [3] was in the range of 0.001 to 0.1 µM.

As for `CNc1cc(C#CCn2c(=O)n(C)c(=O)c3c2nc([S+]([O-])Cc2cc(OC)ccc2OC)n3C)ccn1` (stereo not shown) [Compound 128, 8-((2,5-dimethoxybenzyl)sulfinyl)-1,7-dimethyl-3-(3-(2-(methylamino)pyridin-4-yl)prop-2-yn-1-yl)-3,7-dihydro-1H-purine-2,6-dione], under setting [2], the EC50 lay in the range of 1 to 100 µM.

Regarding `Cn1c(=O)[nH]c2nc(S(C)(=O)=O)n(C)c2c1=O` [Compound 99, 1,7-dimethyl-8-(methylsulfonyl)-1H-purine-2,6(3H,7H)-dione], the EC50 under setting [2] was in the range of 1 to 100 µM.

On to `Cn1c(=O)c2c(nc(S(C)(=O)=O)n2CC#N)n(C)c1=O` [Compound 84, 2-(1,3-dimethyl-8-(methylsulfonyl)-2,6-dioxo-2,3-dihydro-1H-purin-7(6H)-yl)acetonitrile], for which the EC50 under setting [1] was 1 to 1000 µM.

Regarding `Cn1c(=O)c2c(nc(S(C)(=O)=O)n2CC(N)=O)n(C)c1=O` [Compound 86, 2-(1,3-dimethyl-8-(methylsulfonyl)-2,6-dioxo-2,3-dihydro-1H-purin-7(6H)-yl)acetamide], under setting [1], the EC50 lay in the range of 1 to 1000 µM.

For `Cn1c(=O)c2c(nc(S(=O)(=O)Cc3ccccc3Br)n2C)n(C)c1=O` [Compound 32, 8-(2-bromobenzylsulfonyl)-1,3,7-trimethyl-1H-purine-2,6(3H,7H)-dione], the EC50 under setting [1] is 1 to 1000 µM.

In the case of `Cn1c(=O)c2c(nc(S(=O)(=O)CC3CC3)n2C)n(Cc2ccccc2Br)c1=O` [Compound 139, 3-(2-bromobenzyl)-8-((cyclopropylmethyl)sulfonyl)-1,7-dimethyl-1H-purine-2,6(3H,7H)-dione], the EC50 under setting [2] fell in the range of 1 to 100 µM.

On to `Cn1c(=O)c2c(nc(S(=O)(=O)CC3CC3)n2C)n(CC#Cc2ccc(Cl)cc2)c1=O` [Compound 121, 3-(3-(4-chlorophenyl)prop-2-yn-1-yl)-8-((cyclopropylmethyl)sulfonyl)-1,7-dimethyl-3,7-dihydro-1H-purine-2,6-dione], for which the EC50 under setting [4] fell in the range of 0.001 to 1 µM.

On to `Cn1c(=O)c2c(nc(S(C)(=O)=O)n2C)n(CC#Cc2cccc(NCc3ccccc3)c2)c1=O` [Compound 13], for which the EC50 under setting [3] lay within 0.001 to 0.1 µM.

In the case of `Cn1c(=O)c2c(nc(S(=O)(=O)c3ccccc3)n2C)n(C)c1=O` [Compound 20, 1,3,7-trimethyl-8-(phenylsulfonyl)-1H-purine-2,6(3H,7H)-dione], the EC50 under setting [1] was 1 to 1000 µM.

For the compound `COc1cc(CS(=O)(=O)c2nc3c(c(=O)n(C)c(=O)n3C)n2C)c(OC)cc1F` [Compound 71, 8-(4-fluoro-2,5-dimethoxybenzylsulfonyl)-1,3,7-trimethyl-1H-purine-2,6(3H,7H)-dione], the EC50 under setting [1] lay in the range of 1 to 1000 µM.

Consider `Cn1c(=O)c2c(nc3n2CCCS3(=O)=O)n(CC#Cc2cccc(O)c2)c1=O` [Compound 149], for which the EC50 under setting [5] is 1 to 1000 µM.

On to `Cn1c(=O)c2[nH]c(S(C)(=O)=O)nc2n(C)c1=O` [Compound 72, 1,3-dimethyl-8-(methylsulfonyl)-1H-purine-2,6(3H,7H)-dione], for which, under setting [1], the EC50 was 1 to 1000 µM.

As to `Cn1c(=O)c2c(nc(S(N)(=O)=O)n2C)n(CC#Cc2cccc(O)c2)c1=O` [Compound 156], the EC50 under setting [5] was 1 to 1000 µM.

For the compound `Cn1c(=O)c2c(nc(S(C)(=O)=O)n2C)n(CC#Cc2cccc(NC(=O)c3ccccc3)c2)c1=O` [Compound 11], under setting [3], the EC50 lay in the range of 0.001 to 0.1 µM.

Regarding `CCn1c(S(C)(=O)=O)nc2c1c(=O)n(C)c(=O)n2C` [Compound 74, 7-ethyl-1,3-dimethyl-8-(methylsulfonyl)-1H-purine-2,6(3H,7H)-dione], under setting [2], the EC50 is 1 to 10 µM.

Regarding `Cn1c(=O)c2c(nc(S(=O)(=O)Cc3ccc(C#N)cc3)n2C)n(C)c1=O` [Compound 44, 4-((1,3,7-trimethyl-2,6-dioxo-2,3,6,7-tetrahydro-1H-purin-8-ylsulfonyl)methyl)benzonitrile], the EC50 under setting [1] lay in the range of 1 to 1000 µM.

In the case of `COc1cccc(CS(=O)(=O)c2nc3c(c(=O)n(C)c(=O)n3C)n2C)c1OC` [Compound 61, 8-(2,3-dimethoxybenzylsulfonyl)-1,3,7-trimethyl-1H-purine-2,6(3H,7H)-dione], the EC50 under setting [1] was in the range of 1 to 1000 µM.

Consider `Cn1c(=O)c2c(nc([S+](C)[O-])n2C)n(C)c1=O` (stereo not shown) [Compound 3, 1,3,7-trimethyl-8-(methylsulfinyl)-1H-purine-2,6(3H,7H)-dione], for which the EC50 under setting [1] lay within 1 to 1000 µM.

With `COc1cc(C#CCn2c(=O)n(C)c(=O)c3c2nc(S(C)(=O)=O)n3C)cc(NCCN2CCOCC2)c1` [Compound 21], under setting [3], the EC50 lay in the range of 0.001 to 0.1 µM.

In the case of `Cn1c(=O)c2c(nc(S(=O)(=O)Cc3ccccc3C(N)=O)n2C)n(C)c1=O` [Compound 45, 2-((1,3,7-trimethyl-2,6-dioxo-2,3,6,7-tetrahydro-1H-purin-8-ylsulfonyl)methyl)benzamide], the EC50 under setting [1] was in the range of 1 to 1000 µM.

As to `Cn1c(=O)c2c(nc(S(=O)(=O)CC3CC3)n2C)n(CC#Cc2cc(NC(=O)C3CC3)cc(C(F)(F)F)c2)c1=O` [Compound 46], the EC50 under setting [3] is 0.1 to 10 µM.

For `CCC[S+]([O-])c1nc2c(c(=O)n(C)c(=O)n2C)n1C` (stereo not shown) [Compound 9, 1,3,7-trimethyl-8-(propylsulfinyl)-1H-purine-2,6(3H,7H)-dione], under setting [1], the EC50 was 1 to 1000 µM.

On to `Cn1c(=O)c2c(nc(S(=O)(=O)Cc3cc(Cl)cc(Cl)c3)n2C)n(C)c1=O` [Compound 56, 8-(3,5-dichlorobenzylsulfonyl)-1,3,7-trimethyl-1H-purine-2,6(3H,7H)-dione], for which the EC50 under setting [2] lay in the range of 1 to 100 µM.

Turning to `Cn1c(=O)c2c(nc([S+](C)[O-])n2C)n(CC#Cc2cc(NC(=O)C3CC3)cc(C(F)(F)F)c2)c1=O` (stereo not shown) [Compound 49], the EC50 under setting [3] was above 10 µM.

For the compound `CCn1c(SC)nc2c1c(=O)n(C)c(=O)n2C` [Compound 73, 7-ethyl-1,3-dimethyl-8-(methylthio)-1H-purine-2,6(3H,7H)-dione], the EC50 under setting [1] was 1 to 1000 µM.

Turning to `CCCS(=O)(=O)c1nc2c(c(=O)n(C)c(=O)n2CC#Cc2cccc(O)c2)n1C` [Compound 155], the EC50 under setting [5] is 1 to 1000 µM.

In the case of `Cn1c(=O)c2c(nc(S(=O)(=O)CC3CC3)n2C)n(CC#Cc2ccc(Br)cc2)c1=O` [Compound 122, 3-(3-(4-bromophenyl)prop-2-yn-1-yl)-8-((cyclopropylmethyl)sulfonyl)-1,7-dimethyl-3,7-dihydro-1H-purine-2,6-dione], the EC50 under setting [4] was 0.001 to 1 µM.

`COCCOCCS(=O)(=O)c1nc2c(c(=O)n(C)c(=O)n2CC#Cc2cccc(O)c2)n1C` [Compound 154]: the EC50 under setting [5] is 1 to 1000 µM.
